According to PubChem BioAssay AID1919008 (Molecular Pharmacology Branch, DTP, NCI, 2023):
“And” between values parts separate entries of the source, which are not always exact repeats. Equal entries are not always repeated.

System: DMS-114 complex spheroids with HUVEC/MSC, growth % test/control
Test: Anticancer human tumor DMS-114 cell line growth inhibition [AhR];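 also: spheroids exposed to agents for 7 days before readout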;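 as to viability, T/C: 100% = DMSO vehicle control wells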
Conditions: for viability, T/C: stronger effect = lower value
In short: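 Agents were dosed in half-log steps down from roughly clinical Cmax, or from 10 microM where Cmax was unknown, alone and with AhR antagonists. Read-out: percent test/control growth of tumor spheroids containing HUVEC and MSC stromal cells.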

[1] = curve of first compound, second compound 0.1 µM
[2] = curve of first compound, second compound 0.316 µM
[3] = curve of first compound, second compound 1 µM
[4] = curve of first compound, second compound 3.16 µM
[5] = curve of first compound, second compound 10 µM
[6] = second compound 0.1 µM, first compound 0.0316 µM
[7] = second compound 0.1 µM, first compound 0.1 µM
[8] = second compound 0.1 µM, first compound 0.316 µM
[9] = second compound 0.1 µM, first compound 1 µM
[10] = second compound 0.1 µM, first compound 3.16 µM
[11] = second compound 0.1 µM, first compound 10 µM
[12] = second compound 0.316 µM, first compound 0.0316 µM
[13] = second compound 0.316 µM, first compound 0.1 µM
[14] = second compound 0.316 µM, first compound 0.316 µM
[15] = second compound 0.316 µM, first compound 1 µM
[16] = second compound 0.316 µM, first compound 3.16 µM
[17] = second compound 0.316 µM, first compound 10 µM
[18] = second compound 1 µM, first compound 0.0316 µM
[19] = second compound 1 µM, first compound 0.1 µM
[20] = second compound 1 µM, first compound 0.316 µM
[21] = second compound 1 µM, first compound 1 µM
[22] = second compound 1 µM, first compound 3.16 µM
[23] = second compound 1 µM, first compound 10 µM
[24] = second compound 3.16 µM, first compound 0.0316 µM
[25] = second compound 3.16 µM, first compound 0.1 µM
[26] = second compound 3.16 µM, first compound 0.316 µM
[27] = second compound 3.16 µM, first compound 1 µM
[28] = second compound 3.16 µM, first compound 3.16 µM
[29] = second compound 3.16 µM, first compound 10 µM
[30] = second compound 10 µM, first compound 0.0316 µM
[31] = second compound 10 µM, first compound 0.1 µM
[32] = second compound 10 µM, first compound 0.316 µM
[33] = second compound 10 µM, first compound 1 µM
[34] = second compound 10 µM, first compound 3.16 µM
[35] = second compound 10 µM, first compound 10 µM

SMILES: COc1cccc2c1C(=O)c1c(O)c3c(c(O)c1C2=O)CC(O)(C(=O)CO)CC3OC1CC(N)C(O)C(C)O1 (stereo unspecified) + Cc1cncc(-c2nc(NCCc3c[nH]c4ccccc34)c3ncn(C(C)C)c3n2)c1
- IC50 [1]: < 31.6 nM
- IC50 [2]: < 31.6 nM
- IC50 [3]: < 31.6 nM
- IC50 [4]: < 31.6 nM
- IC50 [5]: < 31.6 nM
- viability, T/C [6]: 28.3%
- viability, T/C [7]: 17.7%
- viability, T/C [8]: 5%
- viability, T/C [9]: 0.93%
- viability, T/C [10]: 0.14%
- viability, T/C [11]: 0.22%
- viability, T/C [12]: 26.7%
- viability, T/C [13]: 16.3%
- viability, T/C [14]: 4.84%
- viability, T/C [15]: 0.28%
- viability, T/C [16]: 0.12%
- viability, T/C [17]: 0.18%
- viability, T/C [18]: 27.6%
- viability, T/C [19]: 15%
- viability, T/C [20]: 4.86%
- viability, T/C [21]: 0.26%
- viability, T/C [22]: 0.16%
- viability, T/C [23]: 0.25%
- viability, T/C [24]: 21.4%
- viability, T/C [25]: 15.9%
- viability, T/C [26]: 4.37%
- viability, T/C [27]: 0.22%
- viability, T/C [28]: 0.16%
- viability, T/C [29]: 0.28%
- viability, T/C [30]: 8.93%
- viability, T/C [31]: 5.47%
- viability, T/C [32]: 3.18%
- viability, T/C [33]: 0.37%
- viability, T/C [34]: 0.16%
- viability, T/C [35]: 0.24%

SMILES: COc1cc(Nc2ncc3c(n2)-c2ccc(Cl)cc2C(c2c(F)cccc2OC)=NC3)ccc1C(=O)O + CC(CO)NC(=O)c1cc(-c2ccc(Cl)cc2)nn(-c2cnn(C)c2)c1=O
- IC50 [1]: < 31.6 nM
- IC50 [2]: < 31.6 nM
- IC50 [3]: < 31.6 nM
- IC50 [4]: < 31.6 nM
- IC50 [5]: < 31.6 nM
- viability, T/C [6]: 24.8%
- viability, T/C [7]: 25.1%
- viability, T/C [8]: 63.5%
- viability, T/C [9]: 53.1%
- viability, T/C [10]: 69.2%
- viability, T/C [11]: 54.8%
- viability, T/C [12]: 28.4%
- viability, T/C [13]: 25.6%
- viability, T/C [14]: 58%
- viability, T/C [15]: 72%
- viability, T/C [16]: 63.7%
- viability, T/C [17]: 65.5%
- viability, T/C [18]: 25.8%
- viability, T/C [19]: 23.3%
- viability, T/C [20]: 63.6%
- viability, T/C [21]: 58.3%
- viability, T/C [22]: 61.4%
- viability, T/C [23]: 59.8%
- viability, T/C [24]: 26.2%
- viability, T/C [25]: 21.2%
- viability, T/C [26]: 65.6%
- viability, T/C [27]: 62.3%
- viability, T/C [28]: 73.6%
- viability, T/C [29]: 64.6%
- viability, T/C [30]: 25.6%
- viability, T/C [31]: 24.2%
- viability, T/C [32]: 50.6%
- viability, T/C [33]: 61.5%
- viability, T/C [34]: 58.9%
- viability, T/C [35]: 66.9%

SMILES: COc1cccc2c1C(=O)c1c(O)c3c(c(O)c1C2=O)CC(O)(C(=O)CO)CC3OC1CC(N)C(O)C(C)O1 (stereo unspecified)
- viability, T/C (compound 0.0316 µM): 23.9% and 68.6% and 44.3%
- viability, T/C (compound 0.1 µM): 18% and 54.1% and 32.1%
- viability, T/C (compound 0.316 µM): 4.97% and 18.6% and 9.53%
- viability, T/C (compound 1 µM): 0.27% and 1.97% and 1.19%
- viability, T/C (compound 3.16 µM): 0.18% and 0.45% and 0.38%
- viability, T/C (compound 10 µM): 0.28% and 0.73% and 0.56%
- IC50 (curve of compound): < 31.6 nM and 115 nM

SMILES: CCN(c1cc(-c2ccc(CN3CCOCC3)cc2)cc(C(=O)NCc2c(C)cc(C)[nH]c2=O)c1C)C1CCOCC1
- viability, T/C (compound 0.00949 µM): 99.5% and 108% and 105%
- viability, T/C (compound 0.03 µM): 110% and 95.2% and 118%
- viability, T/C (compound 0.0949 µM): 112% and 105% and 109%
- viability, T/C (compound 0.3 µM): 101% and 100% and 115%
- viability, T/C (compound 0.949 µM): 73.7% and 104% and 92.1%
- viability, T/C (compound 3 µM): 68.2% and 106% and 76.9%
- IC50 (curve of compound): > 3000 nM

SMILES: Nc1ncn(C2CC(O)C(CO)O2)c(=O)n1 (stereo unspecified)
- viability, T/C (compound 0.00316 µM): 91.9% and 109% and 106%
- viability, T/C (compound 0.01 µM): 97.6% and 110% and 95%
- viability, T/C (compound 0.0316 µM): 105% and 108% and 88.3%
- viability, T/C (compound 0.1 µM): 83.8% and 112% and 109%
- viability, T/C (compound 0.316 µM): 66.8% and 110% and 78%
- viability, T/C (compound 1 µM): 53.1% and 110% and 66.1%
- IC50 (curve of compound): > 1000 nM

SMILES: Cn1ncnc1C1c2n[nH]c(=O)c3cc(F)cc(c23)NC1c1ccc(F)cc1 (stereo unspecified) + Cc1cncc(-c2nc(NCCc3c[nH]c4ccccc34)c3ncn(C(C)C)c3n2)c1
- IC50 [1]: > 100 nM
- IC50 [2]: > 100 nM
- IC50 [3]: > 100 nM
- IC50 [4]: > 100 nM
- IC50 [5]: < 0.316 nM
- viability, T/C (second compound 0.1 µM, first compound 0.000316 µM): 103%
- viability, T/C (second compound 0.1 µM, first compound 0.001 µM): 93.9%
- viability, T/C (second compound 0.1 µM, first compound 0.00316 µM): 100%
- viability, T/C (second compound 0.1 µM, first compound 0.01 µM): 105%
- viability, T/C [6]: 98.2%
- viability, T/C [7]: 75.5%
- viability, T/C (second compound 0.316 µM, first compound 0.000316 µM): 87.5%
- viability, T/C (second compound 0.316 µM, first compound 0.001 µM): 89.6%
- viability, T/C (second compound 0.316 µM, first compound 0.00316 µM): 88.1%
- viability, T/C (second compound 0.316 µM, first compound 0.01 µM): 87.1%
- viability, T/C [12]: 84.7%
- viability, T/C [13]: 80.2%
- viability, T/C (second compound 1 µM, first compound 0.000316 µM): 94.1%
- viability, T/C (second compound 1 µM, first compound 0.001 µM): 99%
- viability, T/C (second compound 1 µM, first compound 0.00316 µM): 96.8%
- viability, T/C (second compound 1 µM, first compound 0.01 µM): 93.6%
- viability, T/C [18]: 93.3%
- viability, T/C [19]: 81.3%
- viability, T/C (second compound 3.16 µM, first compound 0.000316 µM): 85.4%
- viability, T/C (second compound 3.16 µM, first compound 0.001 µM): 95.4%
- viability, T/C (second compound 3.16 µM, first compound 0.00316 µM): 89.3%
- viability, T/C (second compound 3.16 µM, first compound 0.01 µM): 77.3%
- viability, T/C [24]: 79.2%
- viability, T/C [25]: 74.9%
- viability, T/C (second compound 10 µM, first compound 0.000316 µM): 47.6%
- viability, T/C (second compound 10 µM, first compound 0.001 µM): 50.7%
- viability, T/C (second compound 10 µM, first compound 0.00316 µM): 42.7%
- viability, T/C (second compound 10 µM, first compound 0.01 µM): 41.6%
- viability, T/C [30]: 37.6%
- viability, T/C [31]: 45.2%

SMILES: CC1COCCN1c1cc(C2(S(C)(=N)=O)CC2)nc(-c2ccnc3[nH]ccc23)n1 (stereo unspecified) + Cc1ccccc1N=Nc1ccc(NC(=O)c2ccnn2C)c(C)c1
- IC50 [1]: > 10000 nM
- IC50 [2]: > 10000 nM
- IC50 [3]: > 10000 nM
- IC50 [4]: > 10000 nM
- IC50 [5]: > 10000 nM
- viability, T/C [6]: 107%
- viability, T/C [7]: 100%
- viability, T/C [8]: 104%
- viability, T/C [9]: 109%
- viability, T/C [10]: 106%
- viability, T/C [11]: 77.6%
- viability, T/C [12]: 102%
- viability, T/C [13]: 98.1%
- viability, T/C [14]: 103%
- viability, T/C [15]: 103%
- viability, T/C [16]: 92.5%
- viability, T/C [17]: 74.1%
- viability, T/C [18]: 95.5%
- viability, T/C [19]: 94.5%
- viability, T/C [20]: 90.6%
- viability, T/C [21]: 102%
- viability, T/C [22]: 102%
- viability, T/C [23]: 71.5%
- viability, T/C [24]: 93.3%
- viability, T/C [25]: 90.5%
- viability, T/C [26]: 99.3%
- viability, T/C [27]: 95.4%
- viability, T/C [28]: 94.2%
- viability, T/C [29]: 68%
- viability, T/C [30]: 95.7%
- viability, T/C [31]: 90.7%
- viability, T/C [32]: 96.2%
- viability, T/C [33]: 89.6%
- viability, T/C [34]: 86.1%
- viability, T/C [35]: 63.1%
